Test results published in patent US7829665B2 (priority 2005, dated 2010).
Like-named read-outs stand apart in the source and are kept apart here.

Legend:
[1] = target: T1, full-length NS3/NS4A-2 (HCV NS3 protease) (Hepatitis C virus genotype 1a, UniProt P27958); assay: NS3-NS4 protease assay / NS3 inhibition assay (RETS1 substrate, fluorescence kinetic read); assay type: biochemical
T1 construct: Recombinant E. coli or Baculovirus full-length NS3 was diluted to 3.33 μM with assay buffer; made in house; host or cells: E. coli or baculovirus (BV) expression system
Outline: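 Full-length NS3 from E. coli (2 nM in assay) or baculovirus (3 nM) was precomplexed with excess NS4A-2 peptide, then preincubated 10 min at room temperature with serially diluted compounds starting at 50 microM. Reaction was started with RETS1 substrate at 8 μM before addition and read kinetically for 30 min (ex 335/em 495 nm). Four-parameter IC50s were converted to Ki by Cheng-Prusoff using Km 2.03 μM (E. coli) or 1.74 μM (BV).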

[2] = test system: HCV sub-genomic replicon in GS4.3 cells (HuH-7 hepatoma cells); assay: Quantitation by ELISA of Neomycin phosphotransferase II (NPTII) in the HCV sub-genomic replicon, GS4.3; assay type: cell-based, hepatitis C virus; settings: Hepatitis C virus, Huh-7; GS4.3 cells, 72 h incubation, NPTII ELISA; read-out: Replicon EC50
Outline: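 HuH-7 GS4.3 cells carrying HCV sub-genomic replicon 1377/NS3-3′, treated 72 h at 37 °C without G418 with 3-fold dilutions from 10 μM to 56 pM (1% DMSO). NPTII in cell lysates measured by direct ELISA with TMB readout at 450 nm. EC50 from 4-parameter fit of percent DMSO-control signal.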

[3] = recombinant E. coli or Baculovirus full-length NS3 with NS4A-2, read-out: NS3-NS4 IC50

T1 sequence (P27958 1027-1657): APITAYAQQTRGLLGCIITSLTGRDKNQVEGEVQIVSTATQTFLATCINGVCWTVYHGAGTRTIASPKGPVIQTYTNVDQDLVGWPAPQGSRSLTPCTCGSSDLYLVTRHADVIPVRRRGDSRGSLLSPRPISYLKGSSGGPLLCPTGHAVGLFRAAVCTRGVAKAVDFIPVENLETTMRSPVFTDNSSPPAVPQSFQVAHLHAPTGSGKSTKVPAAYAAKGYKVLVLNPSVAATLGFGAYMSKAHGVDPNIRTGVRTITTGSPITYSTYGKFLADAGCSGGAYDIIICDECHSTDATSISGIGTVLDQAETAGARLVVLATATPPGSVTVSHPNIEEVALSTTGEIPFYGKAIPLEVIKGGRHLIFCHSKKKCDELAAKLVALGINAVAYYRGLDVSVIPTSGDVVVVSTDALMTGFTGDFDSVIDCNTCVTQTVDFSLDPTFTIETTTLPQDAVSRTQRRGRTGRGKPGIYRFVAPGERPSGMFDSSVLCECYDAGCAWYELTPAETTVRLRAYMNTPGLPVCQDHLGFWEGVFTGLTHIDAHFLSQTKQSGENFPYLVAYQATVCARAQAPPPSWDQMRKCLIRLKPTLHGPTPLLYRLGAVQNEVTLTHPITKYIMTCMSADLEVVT

`CNC(=O)NC(=O)[C@@]12C[C@H]1/C=C\CCCCC[C@H](NC(=O)OC(C)(C)C)C(=O)N1C[C@H](OC(=O)N3Cc4ccccc4C3)C[C@H]1C(=O)N2` [Compound 702] was tested, and the IC50 [1, 3] was < 1000 nM and the EC50 [2] was < 1000 nM.
With `CC(C)(C)OC(=O)N[C@H]1CCCCC/C=C\[C@@H]2C[C@@]2(C(=O)NS(=O)(=O)C2(Cc3ccccc3)CC2)NC(=O)[C@@H]2C[C@@H](OC(=O)N3Cc4ccccc4C3)CN2C1=O` [Compound 101] the IC50 [1, 3] was < 100 nM and the EC50 [2] was < 100 nM.
In the case of `CC(C)(C)OC(=O)N[C@H]1CCCCC/C=C\[C@@H]2C[C@@]2(C(=O)NCC#N)NC(=O)[C@@H]2C[C@@H](OC(=O)N3Cc4cccc(F)c4C3)CN2C1=O` [Compound 615], the IC50 [1, 3] is reported as < 1000 nM and the EC50 [2] is reported as < 10000 nM.
With `CC[C@@H]1C[C@H]2C(=O)N[C@]3(C(=O)NS(=O)(=O)C4CC4)C[C@H]3/C=C\CCCCC[C@H](NC(=O)OC3CCCC3)C(=O)N2C1` [Compound 314] the IC50 [1, 3] was < 100 nM and the EC50 [2] was < 10000 nM.
`O=C1N[C@]2(C(=O)NCC3CC3)C[C@H]2/C=C\CCCCC[C@H](NCc2ccc(F)c(F)c2)C(=O)N2C[C@H](OC(=O)N3Cc4cccc(F)c4C3)C[C@@H]12` [Compound 626] was tested, and the IC50 [1, 3] was < 1000 nM and the EC50 [2] was < 10000 nM.
In the case of `CCOC1(S(=O)(=O)NC(=O)[C@@]23C[C@H]2/C=C\CCCCC[C@H](N)C(=O)N2C[C@H](OC(=O)N4Cc5cccc(Cl)c5C4)C[C@H]2C(=O)N3)CC1` [Compound 167], the IC50 [1] is reported as < 100 nM and the EC50 [2] is reported as < 10000 nM.
With `C=CCC1(S(=O)(=O)NC(=O)[C@@]23C[C@H]2/C=C\CCCCC[C@H](NC(=O)OC(C)(C)C)C(=O)N2C[C@H](OC(=O)N4Cc5ccccc5C4)C[C@H]2C(=O)N3)CC1` [Compound 105] the IC50 [1, 3] was < 100 nM and the EC50 [2] was < 100 nM.
`O=C1N[C@]2(C(=O)NS(=O)(=O)C3CC3)C[C@H]2/C=C\CCCCC[C@H](NC2CCCC2)C(=O)N2C[C@H](OC(=O)N3Cc4cccc(F)c4C3)C[C@@H]12` [Compound 919] was tested, and the IC50 [1, 3] was < 100 nM and the EC50 [2] was < 10000 nM.
For `CC(C)(C)OC(=O)N[C@H]1COCCC/C=C\[C@@H]2C[C@@]2(C(=O)NS(=O)(=O)C2CC2)NC(=O)[C@@H]2C[C@@H](OC(=O)N3Cc4cccc(F)c4C3)CN2C1=O` [Compound 1020, (2R,6S,13aS,14aR,16aS,Z)-6-(tert-butoxycarbonylamino)-14a-(cyclopropylsulfonylcarbamoyl)-5,16-dioxo-2,3,5,6,7,9,10,11,13a,14,14a,15,16,16a-tetradecahydro-1H-cyclopropa(i)pyrrolo[1,2-e][1,5,8]oxadiazacyclopentadecin-2-yl 4-fluoroisoindoline-2-carboxylate], the IC50 [1] was < 100 nM and the EC50 [2] was < 100 nM.
In the case of `O=C(N[C@H]1CCCCC/C=C\[C@@H]2C[C@@]2(C(=O)NS(=O)(=O)C2CC2)NC(=O)[C@@H]2C[C@@H](OC(=O)N3Cc4ccncc4C3)CN2C1=O)OC1CCCC1` [Compound 155], the IC50 [1, 3] is reported as < 100 nM and the EC50 [2] is reported as < 1000 nM.
With `CN(C)S(=O)(=O)NC(=O)[C@@]12C[C@H]1/C=C\CCC(F)(F)CC[C@H](NC(=O)OC(C)(C)C)C(=O)N1C[C@H](OC(=O)N3Cc4cccc(F)c4C3)C[C@H]1C(=O)N2` [Compound 1015] the IC50 [1, 3] was < 100 nM and the EC50 [2] was < 100 nM.
`[2H]C([2H])([2H])N(C([2H])([2H])[2H])S(=O)(=O)NC(=O)[C@@]12C[C@H]1/C=C\CCCCC[C@H](NC(=O)OC(C)(C)C)C(=O)N1C[C@H](OC(=O)N3Cc4ccccc4C3)C[C@H]1C(=O)N2` [Compound 204] was tested, and the IC50 [1, 3] was < 100 nM and the EC50 [2] was < 100 nM.
`CC(C)(C)OC(=O)N[C@H]1CCCCC/C=C\[C@@H]2C[C@@]2(C(=O)O)NC(=O)[C@@H]2C[C@@H](OC(=O)N3Cc4c(Cl)ccc(Cl)c4C3)CN2C1=O` [Compound 144] was tested, and the IC50 [1, 3] was < 100 nM and the EC50 [2] was < 10000 nM.
With `CC(C)(C)OC(=O)N[C@H]1CCCCC/C=C\[C@@H]2C[C@@]2(C(=O)NS(=O)(=O)C2CC2)NC(=O)[C@@H]2C[C@@H](OC(=O)N3CCc4c(Cl)ccc(Cl)c4C3)CN2C1=O` [Compound 256] the IC50 [1, 3] was < 100 nM and the EC50 [2] was < 100 nM.
`CC(C)(C)OC(=O)N[C@H]1CCCCC/C=C\[C@@H]2C[C@@]2(C(=O)NS(=O)(=O)C2CC2)NC(=O)C2Cc3cc(Oc4cccc(Cl)c4)ccc3CN2C1=O` (stereo partly drawn) [Compound 2007, tert-Butyl (1aS,9S,19aR,Z)-15-(3-chlorophenoxy)-19a-(cyclopropylsulfonylcarbamoyl)-10,18-dioxo-1a,4,5,6,7,8,9,10,12,17,17a,18,19,19a-tetradecahydro-1H-11,14-diaza-bicyclo[13.1.0]hexadeca-1(15), 2-dieno[11,12-b]isoquinolin-9-ylcarbamate] was tested, and the IC50 [1, 3] was < 1000 nM and the EC50 [2] was < 10000 nM.
With `N[C@H]1CCC(F)(F)CC/C=C\[C@@H]2C[C@@]2(C(=O)NS(=O)(=O)C2CC2)NC(=O)[C@@H]2C[C@@H](OC(=O)N3Cc4cccc(F)c4C3)CN2C1=O` [Compound 1003] the IC50 [1, 3] was < 100 nM and the EC50 [2] was < 1000 nM.
`O=C(NC1CCCC1)N[C@H]1CCCCC/C=C\[C@@H]2C[C@@]2(C(=O)NS(=O)(=O)C2CC2)NC(=O)C2C[C@@H](OC(=O)N3Cc4cccc(F)c4C3)CN2C1=O` (stereo partly drawn) [Compound 178] was tested, and the IC50 [1, 3] was < 100 nM and the EC50 [2] was < 100 nM.
For `CN(C)[C@H]1CCCCC/C=C\[C@@H]2C[C@@]2(C(=O)NS(=O)(=O)C2CC2)NC(=O)[C@@H]2C[C@@H](OC(=O)N3Cc4cccc(F)c4C3)CN2C1=O` [Compound 908], the IC50 [1, 3] was < 1000 nM and the EC50 [2] was < 10000 nM.
For `O=C(N[C@H]1CCCCC/C=C\[C@@H]2C[C@@]2(C(=O)NS(=O)(=O)Nc2ccc(Cl)cc2)NC(=O)[C@@H]2C[C@@H](OC(=O)N3Cc4cccc(F)c4C3)CN2C1=O)OC1CCCC1` [Compound 219], the IC50 [1, 3] was < 100 nM and the EC50 [2] was < 10000 nM.
`CC(C)(C)OC(=O)N[C@H]1CCCCC/C=C\[C@@H]2C[C@@]2(C(=O)N[C@H]2CCS(=O)(=O)C2)NC(=O)[C@@H]2C[C@@H](OC(=O)N3Cc4cccc(F)c4C3)CN2C1=O` [Compound 634] was tested, and the IC50 [1, 3] was < 1000 nM and the EC50 [2] was < 10000 nM.
With `N[C@H]1CCCCC/C=C\[C@@H]2C[C@@]2(C(=O)NCC2CC2)NC(=O)[C@@H]2C[C@@H](OC(=O)N3Cc4cccc(F)c4C3)CN2C1=O` [Compound 622] the IC50 [1, 3] was < 10000 nM and the EC50 [2] was < 10000 nM.
For `N#CNC(=O)[C@@]12C[C@H]1/C=C\CCCCC[C@H](NC(=O)OC1CCCC1)C(=O)N1C[C@H](OC(=O)N3Cc4cccc(F)c4C3)CC1C(=O)N2` (stereo partly drawn) [Compound 637], the IC50 [1, 3] was < 100 nM and the EC50 [2] was > 10000 nM.
`N[C@H]1CCCCC/C=C\[C@@H]2C[C@@]2(C(=O)NS(=O)(=O)C2CC2)NC(=O)[C@@H]2C[C@@H](OC(=O)N3Cc4cccc(F)c4C3)CN2C1=O` [Compound 107] was tested, and the IC50 [1, 3] was < 100 nM and the EC50 [2] was < 10000 nM.
In the case of `CC(C)(C)OC(=O)N[C@H]1CCCCC/C=C\[C@@H]2C[C@@]2(C(=O)NS(=O)(=O)c2cccs2)NC(=O)[C@@H]2C[C@@H](OC(=O)N3Cc4cccc(Cl)c4C3)CN2C1=O` [Compound 166], the IC50 [1, 3] is reported as < 100 nM and the EC50 [2] is reported as < 100 nM.
`CC(C)(C)OC(=O)N[C@H]1CCCCC/C=C\[C@@H]2C[C@@]2(C(=O)NS(=O)(=O)N2CCOCC2)NC(=O)[C@@H]2C[C@@H](OC(=O)N3Cc4cccc(F)c4C3)CN2C1=O` [Compound 209] was tested, and the IC50 [1, 3] was < 100 nM and the EC50 [2] was < 100 nM.
`O=C1N[C@]2(C(=O)NS(=O)(=O)C3CC3)C[C@H]2/C=C\CCCCC[C@H](NCc2ccccc2C(F)(F)F)C(=O)N2C[C@H](OC(=O)N3Cc4cccc(F)c4C3)C[C@@H]12` [Compound 917] was tested, and the IC50 [1, 3] was < 100 nM and the EC50 [2] was < 100 nM.
In the case of `CC(C)(C)OC(=O)N[C@H]1CCCCC/C=C\[C@@H]2C[C@@]2(C(=O)NS(=O)(=O)C2CC2)NC(=O)[C@@H]2C[C@@H](OC(=O)N3CCc4c(Cl)ccc(F)c4C3)CN2C1=O` [Compound 260], the IC50 [1, 3] is reported as < 100 nM and the EC50 [2] is reported as < 100 nM.
